Reference: PubChem BioAssay (NCI)
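Five compound concentrations were applied to cells in 96-well plates for 48 hours; endpoints were derived by simple linear interpolation of the resulting dose-response curve. GI50: concentration for 50% inhibition of growth. TGI: total growth inhibition.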 Where a SMILES comes first, the peptide text is derived from it. The star is where a group is joined. Cbz = O=C(OCc1ccccc1)*; NHNH2 = NN*

What was measured:
Assay in all cases: NCI-60 cell line screen, 48 h
COLO 205 colon = tested on: COLO 205 colon
HCC-2998 colon = tested on: HCC-2998 colon
HCT-116 colon = tested on: HCT-116 colon
HT29 colon = tested on: HT29 colon
SF-268 CNS = tested on: SF-268 CNS
SF-295 CNS = tested on: SF-295 CNS
SW-620 colon = tested on: SW-620 colon
UO-31 renal = tested on: UO-31 renal
CAKI-1 renal = tested on: CAKI-1 renal

Compound | TGI (COLO 205 colon) | TGI (HCC-2998 colon) | TGI (HCT-116 colon) | TGI (HT29 colon) | TGI (SF-268 CNS) | TGI (SF-295 CNS) | TGI (SW-620 colon) | TGI (UO-31 renal) | TGI (CAKI-1 renal) | GI50 (COLO 205 colon) | GI50 (HCC-2998 colon) | GI50 (HCT-116 colon) | GI50 (HT29 colon) | GI50 (SF-268 CNS) | GI50 (SF-295 CNS) | GI50 (SW-620 colon) | GI50 (UO-31 renal)
COC(=O)CC(NC(=O)OCc1ccccc1)C(=O)NC(CC(=O)OC)C(=O)NC(CC(=O)OC)C(=O)NC(CC(=O)OC)C(=O)NC(CC(=O)OC)C(=O)NC(CC(=O)OC)C(=O)NN (configuration not stated) (Cbz-D(OMe)D(OMe)D(OMe)D(OMe)D(OMe)D(OMe)-NHNH2; configuration not given here) | > 100 µM | > 100 µM | > 100 µM | > 100 µM | > 100 µM | > 100 µM | > 100 µM | > 100 µM | – | – | – | – | – | – | – | – | –
O=c1[nH]nc(-c2ccccc2)c2[nH]c(-c3ccccc3)cc12 | > 100 µM | – | > 100 µM | > 100 µM | > 100 µM | > 100 µM | > 100 µM | > 100 µM | > 100 µM | – | – | – | – | – | – | – | –
O=C(CSc1n[nH]c(=O)[nH]c1=O)NNC(=O)c1cccc2nc3ccccc3nc12 | > 100 µM | > 100 µM | > 100 µM | > 100 µM | > 100 µM | > 100 µM | > 100 µM | – | > 100 µM | – | – | – | – | – | – | – | –
CCOC(=O)/C(C#N)=N\Nc1ccc(-n2c(C)nc3ccccc3c2=O)cc1 | > 100 µM | – | > 100 µM | > 100 µM | > 100 µM | > 100 µM | > 100 µM | > 100 µM | > 100 µM | – | – | – | – | – | – | – | –
CC(=O)OCC(OC(C)=O)C1C[C@H]2O[C@@H]3[C@H](C[C@H]2O1)O[C@@]1(C[C@@H]3C)C[C@H](C)[C@@H]2O[C@]3(C[C@@H]2O1)C[C@H]1O[C@H]2[C@H](C)[C@H]4OC(=O)CC5CC[C@H]6OC7[C@H]8O[C@]9(CC[C@H]%10CC(O)(CO)[C@H](CC[C@H]%11C[C@@H](C)C(O)(CO)C(C[C@@H]4O[C@H]2C[C@H]1O3)O%11)O%10)CC8O[C@@H]7[C@@H](O9)[C@H]6O5 (some centres not stated) | 0.0696 µM | – | > 0.452 µM | – | > 1 µM | > 0.301 µM | > 1 µM | > 1 µM | > 1 µM | – | – | – | – | – | – | – | –
Cc1cn(C(C)OCCN2C(=O)c3ccccc3C2=O)c(=O)[nH]c1=O (configuration not stated) | > 100 µM | > 100 µM | > 100 µM | > 100 µM | – | > 100 µM | > 100 µM | > 100 µM | > 100 µM | – | – | – | – | – | – | – | –
OC1(c2ccc(Cl)cc2)c2ccc3ccccc3c2C2=N[C@H]3CCCC[C@@H]3N21 (some centres not stated) | > 100 µM | – | 20.5 µM | – | > 100 µM | 18.1 µM | > 100 µM | > 100 µM | 67.1 µM | – | – | – | – | – | – | – | –
CC1(C(=O)O)CCCC1C(=O)O (configuration not stated) | – | – | > 100 µM | > 100 µM | > 100 µM | > 100 µM | > 100 µM | > 100 µM | > 100 µM | – | – | – | – | – | – | – | –
COCC1OC(N2C(=O)NC(=O)[C@@H]3C=C4CCCCC4=C[C@@H]32)C(OC)C1OC (some centres not stated) | – | – | > 100 µM | > 100 µM | > 100 µM | > 100 µM | > 100 µM | > 100 µM | – | – | – | – | – | – | – | – | –
CSc1nc2c(c(=O)n1C)N=C(c1ccccc1)[C@H](C(CC(=O)c1ccccc1)c1ccccc1)C(c1ccccc1)N2 (some centres not stated) | > 100 µM | > 100 µM | > 100 µM | > 100 µM | – | > 100 µM | > 100 µM | > 100 µM | > 100 µM | – | – | – | – | – | – | – | –
CC1S/C(=N/c2nnc(-c3ccccc3)o2)NC1=O (configuration not stated) | > 100 µM | – | 37.4 µM | 69.8 µM | > 100 µM | > 100 µM | > 100 µM | > 100 µM | > 100 µM | – | – | – | – | – | – | – | –
CCN1CCC(O)(C(C(=O)O)c2ccccc2)CC1 (configuration not stated) | > 100 µM | > 100 µM | – | > 100 µM | > 100 µM | > 100 µM | > 100 µM | > 100 µM | > 100 µM | – | – | – | – | – | – | – | –
COC(=O)C1=Nc2c(C)nn(-c3ccccc3)c2N=C(c2ccc([N+](=O)[O-])cc2)C1 | > 10 µM | > 10 µM | > 10 µM | > 10 µM | > 10 µM | > 10 µM | > 10 µM | – | > 10 µM | – | – | – | – | – | – | – | –
CNC(=O)N(CCC#N)[C@H]1CCCC[C@@H]1N(C(=O)NC)c1ccccc1 | > 100 µM | > 100 µM | > 100 µM | > 100 µM | – | > 100 µM | > 100 µM | > 100 µM | > 100 µM | – | – | – | – | – | – | – | –
CC(=O)OC/C=C(/C=C/CNC1CCCCC1)OC(C)=O | 28.2 µM | 40.3 µM | 30.5 µM | 35.5 µM | 35.5 µM | 33.2 µM | 29.8 µM | – | 26.7 µM | – | – | – | – | – | – | – | –
CC1(C)OCC2OC3([C@H]4OC(C)(C)O[C@@H]4CO)OC(C)(C)OC3C2O1 (some centres not stated) | > 100 µM | > 100 µM | > 100 µM | > 100 µM | – | > 100 µM | > 100 µM | > 100 µM | > 100 µM | – | – | – | – | – | – | – | –
N#Cc1c(-c2ccc(F)cc2)nc(N/N=C/c2c[nH]c3ccccc23)nc1N1CCOCC1 | 18.2 µM | > 100 µM | 17.9 µM | 22.6 µM | > 100 µM | 4.29 µM | 4.69 µM | 55.2 µM | – | 2.37 µM | 9.91 µM | 2.17 µM | 1.11 µM | 17 µM | 1.89 µM | 1.58 µM | 1.76 µM
COc1ccc(-c2c(C#N)c(N)nc3c2CCS(=O)(=O)c2ccccc2-3)cc1 | > 100 µM | > 100 µM | > 100 µM | > 100 µM | > 100 µM | – | > 100 µM | > 100 µM | > 100 µM | – | – | – | – | – | – | – | –
Cc1cc2ncc3c(=O)n(NS(=O)(=O)c4ccc(N)cc4)ccc3n2n1 | > 100 µM | – | > 100 µM | > 100 µM | > 100 µM | > 100 µM | > 100 µM | > 100 µM | > 100 µM | – | – | – | – | – | – | – | –
CC1CC(=O)Nc2nc3ccccc3n21 (configuration not stated) | > 100 µM | – | > 100 µM | > 100 µM | > 100 µM | > 100 µM | > 100 µM | > 100 µM | > 100 µM | – | – | – | – | – | – | – | –
O=C1C=CC(=O)c2c(O)c(NCCc3ccc(O)cc3)c(Cl)c(O)c21 | > 10 µM | > 10 µM | > 10 µM | > 10 µM | > 10 µM | > 10 µM | > 10 µM | – | > 10 µM | – | – | – | – | – | – | – | –
C=C1CC(C)(c2ccc(Nc3nc4ccccc4c4occc34)cc2)OC1=O (configuration not stated) | 16.2 µM | 5.63 µM | – | 12.6 µM | 15.2 µM | 27.4 µM | – | – | 40.3 µM | – | – | – | – | – | – | – | –
